Measurements: the supplement of paper PMC11061612

Experiments:
Assay in all cases: combination Emax (second highest fraction inhibited in the dose matrix, 72 h); higher = more inhibition; extreme values may be limits of the assay
[1] = test system: LS-1034 (Colorectal Carcinoma)
In short: (§1)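 Bliss excess equals the observed combination effect minus the expected value EA + EB − EA·EB, where EA and EB are the effects of each agent alone. Combination Emax is the second-highest inhibition within the matrix. Inhibition was scaled from CellTiter-Glo 2.0 luminescence, with 0 set by vehicle wells and 1 by blank wells, after 72 hours of two-drug dosing of cells plated in 1536-well plates.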

[2] = test system: RCC-JW (Kidney Carcinoma)
In short: as §1

[3] = test system: MOLT-13 (T-Lymphoblastic Leukemia)
In short: as §1

[4] = test system: IST-MEL1 (Melanoma)
In short: as §1

[5] = test system: HT-1080 (Other Solid Carcinomas)
In short: as §1

[6] = test system: CL-11 (Colorectal Carcinoma)
In short: as §1

[7] = test system: SNU-407 (Colorectal Carcinoma)
In short: as §1

[8] = test system: MDA-MB-415 (Breast Carcinoma)
In short: as §1

[9] = test system: KALS-1 (Glioblastoma)
In short: as §1

[10] = test system: MOLP-8 (Plasma Cell Myeloma)
In short: as §1

[11] = test system: UACC-257 (Melanoma)
In short: as §1

[12] = test system: NCI-H1876 (Small Cell Lung Carcinoma)
In short: as §1

[13] = test system: T47D (Breast Carcinoma)
In short: as §1

[14] = test system: SNU-C2B (Colorectal Carcinoma)
In short: as §1

[15] = test system: AM-38 (Glioblastoma)
In short: as §1

[16] = test system: SKG-IIIa (Cervical Carcinoma)
In short: as §1

[17] = test system: NCI-H596 (Other Solid Carcinomas)
In short: as §1

[18] = test system: NCI-H3118 (Head and Neck Carcinoma)
In short: as §1

[19] = test system: MM1S (Plasma Cell Myeloma)
In short: as §1

[20] = test system: NCI-H1341 (Small Cell Lung Carcinoma)
In short: as §1

Structure (SMILES)	combination Emax [1]	combination Emax [2]	combination Emax [3]	combination Emax [4]	combination Emax [5]	combination Emax [6]	combination Emax [7]	combination Emax [8]	combination Emax [9]	combination Emax [10]	combination Emax [11]	combination Emax [12]	combination Emax [13]	combination Emax [14]	combination Emax [15]	combination Emax [16]	combination Emax [17]	combination Emax [18]	combination Emax [19]	combination Emax [20]
CCN(CCO)CCCOc1ccc2c(Nc3cc(CC(=O)Nc4cccc(F)c4)[nH]n3)ncnc2c1 [AZD2811] + C[C@@H]1COCCN1C2=NC(=NC(=C2)C3(CC3)[S@](=N)(=O)C)C4=C5C=CNC5=NC=C4 [AZD6738] (first compound max 1 µM, 7x7, partner max 10 µM)	0.64	0.545	0.993	0.731	0.336	0.777	0.658	0.498	0.828	0.791	0.16	0.963	0.313	0.655	0.747	0.326	0.377	0.599	0.646	0.733
CCN(CCO)CCCOc1ccc2c(Nc3cc(CC(=O)Nc4cccc(F)c4)[nH]n3)ncnc2c1 [AZD2811] + O=C(c1cc(Cc2n[nH]c(=O)c3ccccc23)ccc1F)N1CCN(C(=O)C2CC2)CC1 [Olaparib] (first compound max 1 µM, 7x7, partner max 10 µM)	0.192	0.183	0.997	0.259	0.215	0.202	0.306	0.225	0.296	0.434	0.237	0.821	0.233	0.269	0.331	0.147	0.238	0.208	0.291	0.294
CN(CCO)CC[C@H](CSc1ccccc1)Nc1ccc(S(=O)(=O)NC(=O)c2ccc(N3CCC([C@@H](O)c4ccccc4-c4ccc(Cl)cc4)CC3)cc2)cc1S(=O)(=O)C(F)(F)F [AZD4320] + C1CN(CCC1(C(=O)N[C@@H](CCO)C2=CC=C(C=C2)Cl)N)C3=NC=NC4=C3C=CN4 [Capivasertib] (first compound max 1 µM, 7x7, partner max 3 µM)	0.275	0.615	0.913	0.26	0.5	0.147	0.362	0.968	0.485	0.254	0.1	0.955	0.364	0.201	0.561	0.131	0.42	0.0845	1	0.974
CN(CCO)CC[C@H](CSc1ccccc1)Nc1ccc(S(=O)(=O)NC(=O)c2ccc(N3CCC([C@@H](O)c4ccccc4-c4ccc(Cl)cc4)CC3)cc2)cc1S(=O)(=O)C(F)(F)F [AZD4320] + C=CCn1c(=O)c2cnc(Nc3ccc(N4CCN(C)CC4)cc3)nc2n1-c1cccc(C(C)(C)O)n1 [AZD1775] (first compound max 1 µM, partner max 1 µM)	0.371	0.712	1	0.85	0.718	0.507	0.415	0.665	0.975	0.831	0.103	1	0.195	0.79	0.834	0.426	0.318	0.916	1	1
CN(CCO)CC[C@H](CSc1ccccc1)Nc1ccc(S(=O)(=O)NC(=O)c2ccc(N3CCC([C@@H](O)c4ccccc4-c4ccc(Cl)cc4)CC3)cc2)cc1S(=O)(=O)C(F)(F)F [AZD4320] + CCN(CCO)CCCOc1ccc2c(Nc3cc(CC(=O)Nc4cccc(F)c4)[nH]n3)ncnc2c1 [AZD2811] (first compound max 1 µM, 7x7, partner max 1 µM)	0.251	0.661	1	0.407	0.594	0.0894	0.411	0.619	0.508	0.418	0.161	0.998	0.335	0.168	0.932	0.191	0.289	0.333	1	1
CN(CCO)CC[C@H](CSc1ccccc1)Nc1ccc(S(=O)(=O)NC(=O)c2ccc(N3CCC([C@@H](O)c4ccccc4-c4ccc(Cl)cc4)CC3)cc2)cc1S(=O)(=O)C(F)(F)F [AZD4320] + CN(C)CCCOc1ccc(-c2ccc3ncc4c(c3c2)n(C2CCOCC2)c(=O)n4C)cn1 [AZD0156] (first compound max 1 µM, 7x7, partner max 1 µM)	0.347	0.62	0.949	0.249	0.549	0.144	0.0943	0.636	0.227	0.315	0.141	0.982	0.283	0.208	0.718	0.109	0.289	0.0719	0.984	0.974
CN(CCO)CC[C@H](CSc1ccccc1)Nc1ccc(S(=O)(=O)NC(=O)c2ccc(N3CCC([C@@H](O)c4ccccc4-c4ccc(Cl)cc4)CC3)cc2)cc1S(=O)(=O)C(F)(F)F [AZD4320] + C[C@@H]1COCCN1C2=NC(=NC(=C2)C3(CC3)[S@](=N)(=O)C)C4=C5C=CNC5=NC=C4 [AZD6738] (first compound max 1 µM, 7x7, partner max 10 µM)	0.721	0.79	1	0.941	0.656	0.895	0.709	0.879	0.939	0.787	0.186	1	0.324	0.636	0.95	0.536	0.425	0.765	1	1
CN(CCO)CC[C@H](CSc1ccccc1)Nc1ccc(S(=O)(=O)NC(=O)c2ccc(N3CCC([C@@H](O)c4ccccc4-c4ccc(Cl)cc4)CC3)cc2)cc1S(=O)(=O)C(F)(F)F [AZD4320] + C[C@@H](Nc1cc(F)cc(F)c1)c1cc(C(=O)N(C)C)cc2c(=O)cc(N3CCOCC3)oc12 [AZD8186] (first compound max 1 µM, 7x7, partner max 3 µM)	0.334	0.817	0.996	0.405	0.704	0.378	0.311	0.909	0.5	0.414	0.269	1	0.439	0.374	0.905	0.471	0.381	0.39	0.988	0.99
CN(CCO)CC[C@H](CSc1ccccc1)Nc1ccc(S(=O)(=O)NC(=O)c2ccc(N3CCC([C@@H](O)c4ccccc4-c4ccc(Cl)cc4)CC3)cc2)cc1S(=O)(=O)C(F)(F)F [AZD4320] + Cc1cc2ncnn2cc1Nc1ncc2c(n1)n(C1CCOCC1)c(=O)n2C [AZD7648] (first compound max 1 µM, 7x7, partner max 10 µM)	0.159	0.566	0.951	0.415	0.535	0.126	0.721	0.749	0.343	0.444	0.122	0.925	0.312	0.191	0.811	0.12	0.338	0.0876	1	0.999
CN(CCO)CC[C@H](CSc1ccccc1)Nc1ccc(S(=O)(=O)NC(=O)c2ccc(N3CCC([C@@H](O)c4ccccc4-c4ccc(Cl)cc4)CC3)cc2)cc1S(=O)(=O)C(F)(F)F [AZD4320] + Cn1cnc2c(F)c(Nc3ccc(Br)cc3Cl)c(C(=O)NOCCO)cc21 [Selumetinib] (first compound max 1 µM, 7x7, partner max 3 µM)	0.594	0.665	1	0.35	0.666	0.811	0.57	0.583	0.449	0.468	0.838	1	0.314	0.422	0.951	0.431	0.343	0.422	0.983	0.99
COc1nnc2ccc(N3CCC(c4ccc(OCCN5CCN(C)C(=O)[C@H]5C)cc4)CC3)nn12 [AZD5153] + C=CCn1c(=O)c2cnc(Nc3ccc(N4CCN(C)CC4)cc3)nc2n1-c1cccc(C(C)(C)O)n1 [AZD1775] (first compound max 1 µM, partner max 1 µM)	0.613	0.382	1	0.524	0.522	0.809	0.89	0.44	0.723	0.956	0.359	0.99	0.505	0.584	0.353	0.546	0.803	0.754	0.734	0.972
